{"source": "patent US20140371305A1", "about": "“Mupirocin Antibiotic Composition” (PROFESSIONAL COMPOUNDING CENTERS OF AMERICA, priority 2013, published 2014)", "key": {"Pseudomonas aeruginosa": {"test_system": "Pseudomonas aeruginosa", "test": "Minimum inhibitory concentration (MIC) test", "format": "cell-based", "details": "mupirocin combined with micronized poloxamer composition 202 (poloxamer 188 and poloxamer 407)", "method": "(§1) “Minimum Inhibitory Concentration (MIC)” may refer to the lowest concentration of an antimicrobial that may inhibit the visible growth of a microorganism after overnight incubation.\n(§2) Moreover, micronized poloxamer composition 202 may enhance mupirocin's properties by lowering the minimum inhibitory concentration (MIC) to about […]. The MIC was tested against microorganisms such as Pseudomonas aeruginosa, and Methicillin Resistant Staphylococcus aureus, among others."}, "[1]": {"test_system": "Methicillin Resistant Staphylococcus aureus", "test": "Minimum inhibitory concentration (MIC) test", "format": "cell-based", "details": "mupirocin combined with micronized poloxamer composition 202 (poloxamer 188 and poloxamer 407)", "method": "as §1, §2"}}, "data": [{"smiles": "C/C(=C\\C(=O)OCCCCCCCCC(=O)O)C[C@@H]1OC[C@H](C[C@@H]2O[C@H]2[C@@H](C)[C@H](C)O)[C@@H](O)[C@H]1O", "note": "[mupirocin]", "values": [{"measurement": "minimum inhibitory concentration (MIC)", "setting": "Pseudomonas aeruginosa", "value": "about 1.7 g"}, {"measurement": "minimum inhibitory concentration (MIC)", "setting": "[1]", "value": "about 1.7 g"}]}]}
